Values after ≈ are worked out from the molar mass of the structure shown.
Legend:
[1] = system: Streptococcus faecalis ATCC 8043; experiment: Determination of MIC and MBC by microdilution method, Streptococcus faecalis ATCC 8043; format: cell-based; details: Enterococcus faecalis; for MBC: ATCC8043, S. faecalis ATCC 8043, read-out: Minimal bactericidal concentration (MBC); for MIC: ATCC8043, S. faecalis ATCC 8043, Mueller-Hinton broth, 18 hours at 37°, read-out: Minimal inhibitory concentration (MIC)
Method: (§1) The compound have been tested towards 7 reference strains:
Streptococcus faecalis ATCC 8043
(§2) The preparation of these mother liquors has been performed and vary depending on the molecules as a function of the solubility criterions. Inoculation has been done by adding in each will, 10 μl of a dilution in saline of 18 hours old broth in a brain-heart broth, such as each well contains about 10^6 bacterias/ml. […]

[2] = system: Acinetobacter Baumanii ATCC 17904; experiment: Determination of MIC and MBC by microdilution method, Acinetobacter; format: cell-based; details: Acinetobacter baumannii; for MIC: ATCC17904, 18 h, Acinetobacter Baumanii ATCC 17904, Mueller-Hinton broth, 18 hours at 37°, read-out: Minimal inhibitory concentration (MIC); for MBC: ATCC17904, Acinetobacter Baumanii ATCC 17904, read-out: Minimal bactericidal concentration (MBC)
Method: The compound have been tested towards 7 reference strains: […]
(§3) The determination of minimal inhibitory concentrations (MIC) has been performed using a microdution method (microplates and inoculator Dynatech) in liquid medium (MUELLER-HINTON broth) under a volume of 100 μl and for a range of concentrations from 128 to 0.06 mg/l, prepared from a mother liquor of antibiotics titrating 512 mg/l. The preparation of these mother liquors has been performed and vary depending on the molecules as a function of the solubility criterions. Inoculation has been done by adding in each will, 10 μl of a dilution in saline of 18 hours old broth in a brain-heart broth, such as each well contains about 10^6 bacterias/ml.
(§4) The Minimal Inhibitory Concentrations are read as the first concentration of antibiotic which will not give a growth macroscopically detectable after 18 hours incubating at 37°.

[3] = system: Pseudomonas aeruginosa ATCC 22853; experiment: Determination of MIC and MBC by microdilution method, Pseudomonas aeruginosa ATCC 22853; format: cell-based; details: Pseudomonas aeruginosa; for MIC: ATCC22853, 18 h, P. aeruginosa ATCC 22853, Mueller-Hinton broth, 18 hours at 37°, read-out: Minimal inhibitory concentration (MIC); for MBC: ATCC22853, P. aeruginosa ATCC 22853, read-out: Minimal bactericidal concentration (MBC)
Method: as §1
Pseudomonas aeruginosa ATCC 22853
as §2

[4] = system: S. aureus CB-951; experiment: Determination of MIC and MBC by microdilution method, S. aureus CB-951; format: cell-based, Staphylococcus aureus; details: Staphylococcus aureus, erythromycinolincomycino, pefloxacino resistant; for MIC: CB951, 18 h, S. aureus CB-951, methicillino, Mueller-Hinton broth, 18 hours at 37°, read-out: Minimal inhibitory concentration (MIC); for MBC: CB951, S. aureus CB-951, methicillino, read-out: Minimal bactericidal concentration (MBC)
Method: as §1
Staphylococcus aureus CB 951
as §3, §4

[5] = system: Escherichia coli ATCC 25922; experiment: Determination of MIC and MBC by microdilution method, Escherichia coli ATCC 25922; format: cell-based; details: Escherichia coli, ATCC25922, E. coli ATCC 25922; for MIC: Mueller-Hinton broth, 18 hours at 37°, read-out: Minimal inhibitory concentration (MIC); for MBC: read-out: Minimal bactericidal concentration (MBC)
Method: as §1
Escherichia coli ATCC 25922
as §3, §4

[6] = system: Staphylococcus aureus ATCC 25923; experiment: Determination of MIC and MBC by microdilution method, Staphylococcus aureus ATCC 25923; format: cell-based; details: Staphylococcus aureus; for MIC: ATCC25923, 18 h, S. aureus ATCC 25923, Mueller-Hinton broth, 18 hours at 37°, read-out: Minimal inhibitory concentration (MIC); for MBC: ATCC25923, S. aureus ATCC 25923, read-out: Minimal bactericidal concentration (MBC)
Method: as §1
Staphylococcus aureus ATCC 25923
as §3, §4

Row | Compound | MBC [1] [µg/mL] | MIC [1] [µg/mL] | MIC [2] [µg/mL] | MBC [2] [µg/mL] | MIC [3] [µg/mL] | MBC [3] [µg/mL] | MIC [4] [µg/mL] | MBC [4] [µg/mL] | MIC [5] [µg/mL] | MBC [5] [µg/mL] | MIC [6] [µg/mL] | MBC [6] [µg/mL]
1 | CCn1cc(C(=O)O)c(=O)c2cc(F)c(N3CCC(CNC(=O)Nc4cccc(F)c4)CC3)c(F)c21 [Compound 13, 7-[4-(3-fluorophenyl)aminocarbonylaminomethylpiperidinyl-1] 6,8-difluoro 1-ethyl] | > 16 | > 16 | 0.06 (≈ 0.119 µM) | 0.06 (≈ 0.119 µM) | > 16 | > 16 | 0.25 (≈ 0.498 µM) | 0.5 (≈ 0.995 µM) | > 16 | > 16 | 0.12 (≈ 0.239 µM) | 0.25 (≈ 0.498 µM)
2 | CCn1cc(C(=O)O)c(=O)c2cc(F)c(N3CCC(CNC(=O)Nc4ccc(OC)cc4)CC3)c(F)c21 [Compound 16, 7-[4-(4-methoxyphenyl)aminocarbonylaminomethylpiperidinyl-1] 6,8-difluoro1-ethyl] | 16 (≈ 31.1 µM) | 8 (≈ 15.5 µM) | 0.06 (≈ 0.117 µM) | 0.03 (≈ 0.0583 µM) | > 16 | > 16 | 0.5 (≈ 0.972 µM) | 1 (≈ 1.94 µM) | 16 (≈ 31.1 µM) | 16 (≈ 31.1 µM) | 0.06 (≈ 0.117 µM) | 0.06 (≈ 0.117 µM)
3 | CCn1cc(C(=O)O)c(=O)c2cc(F)c(N3CCC(CNC(=O)Nc4ccc(F)cc4F)CC3)c(F)c21 [Compound 18, 7-[4-(2,4-difluorophenyl)aminocarbonylaminomethylpiperidinyl-1] 6,8-difluoro 1-ethyl] | 2 (≈ 3.84 µM) | 2 (≈ 3.84 µM) | ≤ 0.12 | ≤ 0.12 | > 16 | > 16 | 0.25 (≈ 0.48 µM) | 0.25 (≈ 0.48 µM) | 2 (≈ 3.84 µM) | 4 (≈ 7.69 µM) | ≤ 0.12 | ≤ 0.12
4 | NCC1CCN(c2c(F)cc3c(=O)c(C(=O)O)cn(Cc4ccccc4Cl)c3c2F)CC1 [Compound 5, 7-(4-aminomethylpiperidinyl-1) 6,8-difluoro 1-(2-chlorobenzyl) 4-oxo 1,4-dihydroquinoleinyl-3 carboxylic acid] | > 16 | 16 (≈ 34.6 µM) | 4 (≈ 8.66 µM) | 8 (≈ 17.3 µM) | > 16 | > 16 | > 16 | > 16 | 4 (≈ 8.66 µM) | 8 (≈ 17.3 µM) | 2 (≈ 4.33 µM) | 4 (≈ 8.66 µM)
5 | CCn1cc(C(=O)O)c(=O)c2cc(F)c(N3CCN(C)CC3)cc21 [Pefloxacine, reference compound] | 1 (≈ 3 µM) | 1 (≈ 3 µM) | 0.06 (≈ 0.18 µM) | 0.06 (≈ 0.18 µM) | 2 (≈ 6 µM) | 2 (≈ 6 µM) | 4 (≈ 12 µM) | 4 (≈ 12 µM) | 0.06 (≈ 0.18 µM) | 0.06 (≈ 0.18 µM) | 0.12 (≈ 0.36 µM) | 0.25 (≈ 0.75 µM)
6 | NCC1CCN(c2c(F)cc3c(=O)c(C(=O)O)cn(Cc4ccc(F)cc4)c3c2F)CC1 [Compound 4, 7-(4-aminomethylpiperidinyl-1) 6,8-difluoro 1-(4-fluorobenzyl) 4-oxo 1,4-dihydroquinoleinyl-3 carboxylic acid] | 12 (≈ 26.9 µM) | > 12 | 12 (≈ 26.9 µM) | > 12 | > 12 | > 12 | > 12 | 12 (≈ 26.9 µM) | > 12 | > 12 | 12 (≈ 26.9 µM) | 12 (≈ 26.9 µM)
7 | CCn1cc(C(=O)O)c(=O)c2cc(F)c(N3CCC(CNC(=O)Nc4ccc(Cl)c(Cl)c4)CC3)c(F)c21 [Compound 14, 7-[4-(3,4-dichlorophenyl)aminocarbonylaminomethylpiperidinyl-1] 6,8-difluoro 1-ethyl] | > 16 | > 16 | 4 (≈ 7.23 µM) | 8 (≈ 14.5 µM) | > 16 | > 16 | 16 (≈ 28.9 µM) | > 16 | > 16 | > 16 | 2 (≈ 3.61 µM) | 8 (≈ 14.5 µM)

— patent US5420140A, “Difluorinated quinolones useful for treating bacterial infections” (Bouchara S.A., priority 1991, dated 1995)
